Laboratory results taken from patent US4324783A, “Antibacterial composition for medical use” (Toyama Chemical Co., Ltd., priority 1977, dated 1982).

Columns and labels:
[1] = system: Escherichia coli TK-3 strain; assay: Growth-inhibition test on clinically isolated strain (Heart Infusion agar, about 10^8 cells/ml, 18 hours at 37° C.); type: cell-based; design: key: (+) means that the test bacterium grew; (-) means that the test bacterium did not grow
Procedure: (§1) Heart Infusion agar containing a prescribed amount of Methicillin sodium or T-1220 was inoculated with the test bacterium at a rate of about 10^8 cells/ml. After incubation for 18 hours at 37° C., the growth of the test bacterium was inspected.

[2] = system: Pseudomonas aeruginosa S-12 strain; assay: as above; type: cell-based; design: key: (+) means that the test bacterium grew; (-) means that the test bacterium did not grow
Procedure: as §1

[3] = system: Escherichia coli TK-3 strain; assay: Minimum inhibitory concentration; type: cell-based; conditions: TK3STRAIN
[4] = system: Pseudomonas aeruginosa S-12 strain; assay: Minimum inhibitory concentration; type: cell-based; conditions: S12STRAIN
K. pneumoniae Y-53 = assay: Effect of combined use on experimental infection in mice (protection effect); type: in vivo, ICR mice infected with K. pneumoniae; conditions: K. pneumoniae Y-53, 1.0 × 10^7 cells/mouse intraperitoneal; subcutaneous, one and two hours after inoculation
Text: (§2) Male mice (5 mice per group) of the ICR strain, 4 weeks of age, were peritoneally inoculated with the prescribed number of pathogenic bacteria suspended in 5% mucin. After one hour and two hours following the inoculation, test preparations shown in Table 4 were subcutaneously administered to examine the protection effect.

P. aeruginosa S-111 = assay: as above; type: in vivo, ICR mice infected with P. aeruginosa; conditions: P. aeruginosa S-111, 1.6 × 10^6 cells/mouse intraperitoneal; subcutaneous, one and two hours after inoculation
Text: as §2

[5] = system: clinically isolated strains; assay: Test Examples 1 to 3 with other β-lactamase-inhibiting penicillins or cephalosporins; type: cell-based; conditions: in place of Methicillin or Cloxacillin
Procedure: as §1
The β-lactamase activity was assayed by the iodometric assay method at 30° C., following the procedure of Perret [C.J. Perret, "Iodometric Assay of Penicillinase," Nature, 174, 1012-1013 (1954)], except that a 0.1 molar phosphate buffer solution (pH 7.0) was used in place of the 0.2 molar phosphate buffer solution (pH 6.5). One unit of β-lactamase activity corresponds to the quantity of β-lactamase which decomposes 1 μmole/hour of T-1220 in a 0.1 molar phosphate buffer solution (pH 7.0) containing 8 m moles of the substrate.
A pathogenic bacterium was inoculated at a rate of about 10^8 cells/ml into a Heart Infusion broth containing T-1220 (200 μg/ml) alone, T-1220 (200 μg/ml) plus Methicillin sodium (200 μg/ml), T-1220 (200 μg/ml) plus Cloxacillin sodium (200 μg/ml), Methicillin sodium (200 μg/ml) alone, or Cloxacillin sodium (200 μg/ml) alone. The inoculated broth was incubated at 37° C. and the number of live cells in the culture broth was determined at predetermined time intervals.
The test results described in the foregoing Test Examples 1 to 3 are typical of the pharmacological activity of the antibacterial composition of this invention.

[6] = T-1220 0 + methicillin sodium 50 μg/ml
[7] = T-1220 0 + methicillin sodium 100 μg/ml
[8] = T-1220 0 + methicillin sodium 200 μg/ml

`COc1cccc(OC)c1C(=O)N[C@@H]1C(=O)N2[C@@H]1SC(C)(C)[C@@H]2C(=O)O` [Methicillin sodium] was tested, and the “growth of the test bacterium” value [1, 6] was “+”, the “growth of the test bacterium” value [1, 7] was “+” and the “growth of the test bacterium” value [1, 8] was “+”. The “growth of the test bacterium” value ([1]; T-1220 0 + methicillin sodium 400 μg/ml) was “+”, the “growth of the test bacterium” value ([1]; T-1220 0 + methicillin sodium 800 μg/ml) was “+” and the “growth of the test bacterium” value ([1]; T-1220 0 + methicillin sodium 1600 μg/ml) was “+”. The “growth of the test bacterium” value ([1]; T-1220 0 + methicillin sodium 3200 μg/ml) was “+”, the “growth of the test bacterium” value ([2]; T-1220 0 + methicillin sodium 3.13 μg/ml) was “+” and the “growth of the test bacterium” value ([2]; T-1220 0 + methicillin sodium 6.25 μg/ml) was “+”. The “growth of the test bacterium” value ([2]; T-1220 0 + methicillin sodium 12.5 μg/ml) was “+”, the “growth of the test bacterium” value ([2]; T-1220 0 + methicillin sodium 25 μg/ml) was “+” and the “growth of the test bacterium” value [2, 6] was “+”. For the same molecule, the “growth of the test bacterium” value [2, 7] was “+”, the “growth of the test bacterium” value [2, 8] was “+” and the MIC [3] was > 3200 µg/mL. For the same molecule, the MIC [4] was > 3200 µg/mL, the “ED50 (protection effect)” value (K. pneumoniae Y-53) was > 50 mg/mouse and the “ED50 (protection effect)” value (P. aeruginosa S-111) was > 50 mg/mouse.

With `Cc1onc(-c2ccccc2Cl)c1C(=O)N[C@@H]1C(=O)N2[C@@H]1SC(C)(C)[C@@H]2C(=O)O` [Cloxacillin sodium] the MIC [3] was > 3200 µg/mL and the MIC [4] was > 3200 µg/mL.

In the case of `Cc1onc(-c2ccccc2)c1C(=O)N[C@@H]1C(=O)N2[C@@H]1SC(C)(C)[C@@H]2C(=O)O` [Oxacillin], the “results in the Test Examples when used as the β-lactamase-inhibiting penicillin or cephalosporin” value [5] was “results similar to those obtained with Methicillin and Cloxacillin”.

`Cc1onc(-c2c(Cl)cccc2Cl)c1C(=O)N[C@@H]1C(=O)N2[C@@H]1SC(C)(C)[C@@H]2C(=O)O` [Dicloxacillin] was tested, and the “results in the Test Examples when used as the β-lactamase-inhibiting penicillin or cephalosporin” value [5] was “results similar to those obtained with Methicillin and Cloxacillin”.

In the case of `CO[C@@]1(NC(=O)Cc2cccs2)C(=O)N2C(C(=O)O)=C(COC(N)=O)CS[C@@H]21` [Cefoxitin], the “results in the Test Examples when used as the β-lactamase-inhibiting penicillin or cephalosporin” value [5] was “results similar to those obtained with Methicillin and Cloxacillin”.

For `Cc1onc(-c2c(F)cccc2Cl)c1C(=O)N[C@@H]1C(=O)N2[C@@H]1SC(C)(C)[C@@H]2C(=O)O` [Flucloxacillin], the “results in the Test Examples when used as the β-lactamase-inhibiting penicillin or cephalosporin” value [5] was “results similar to those obtained with Methicillin and Cloxacillin”.

`CCN1CCN(C(=O)N[C@@H](C(=O)N[C@@H]2C(=O)N3[C@@H]2SC(C)(C)[C@@H]3C(=O)O)c2ccccc2)C(=O)C1=O` [T-1220, sodium 6-[D(-)-α-(4-ethyl-2,3-dioxo-1-piperazinylcarbonylamino)phenylacetamido]penicillanate] was tested, and the “growth of the test bacterium” value ([1]; T-1220 50 + methicillin sodium 0 μg/ml) was “+”, the “growth of the test bacterium” value ([1]; T-1220 100 + methicillin sodium 0 μg/ml) was “+” and the “growth of the test bacterium” value ([1]; T-1220 200 + methicillin sodium 0 μg/ml) was “+”. The “growth of the test bacterium” value ([1]; T-1220 400 + methicillin sodium 0 μg/ml) was “+”, the “growth of the test bacterium” value ([1]; T-1220 800 + methicillin sodium 0 μg/ml) was “+” and the “growth of the test bacterium” value ([1]; T-1220 1600 + methicillin sodium 0 μg/ml) was “+”. The “growth of the test bacterium” value ([1]; T-1220 3200 + methicillin sodium 0 μg/ml) was “+”, the “growth of the test bacterium” value ([2]; T-1220 50 μg/ml, methicillin sodium concentration not given) was “+” and the “growth of the test bacterium” value ([2]; T-1220 100 μg/ml, methicillin sodium concentration not given) was “+”. The “growth of the test bacterium” value ([2]; T-1220 200 μg/ml, methicillin sodium concentration not given) was “+”, the “growth of the test bacterium” value ([2]; T-1220 400 μg/ml, methicillin sodium concentration not given) was “+” and the “growth of the test bacterium” value ([2]; T-1220 800 μg/ml, methicillin sodium concentration not given) was “+”. The “growth of the test bacterium” value ([2]; T-1220 1600 μg/ml, methicillin sodium concentration not given) was “+”, the “growth of the test bacterium” value ([2]; T-1220 3200 μg/ml, methicillin sodium concentration not given) was “+” and the MIC [3] was > 3200 µg/mL. The MIC [4] was > 3200 µg/mL, the “ED50 (protection effect)” value (K. pneumoniae Y-53) was > 50 mg/mouse and the “ED50 (protection effect)” value (P. aeruginosa S-111) was > 50 mg/mouse.
